# Test system: CT26 colorectal carcinoma murine model
# Conditions: mouse, in vivo
# Experimental: Efficacy was tested in murine model (BSPN02). CT26 colorectal cell lines in a murine model were chosen to conduct toxicity and safety studies in-vivo. The safety profile of Biomaterial-5-FU was compared with other control groups, and five aspects were evaluated as follows: (i) change in the body weight over time, (ii) organ weight and the ratio of organ to body weight, (iii) Hematoxylin-Eosin (H & E) staining for histological changes, (iv) a hepatic function panel, and (v) blood chemistry to assess impact on bone marrow. For H & E staining, five major organs (liver, heart, spleen, lungs, and kidneys) were collected from the mice at each time point. […] This toxic effect was not observed in mice treated with Biomaterial-5-FU. […] This toxic effect was not observed in mice treated with Biomaterial-5-FU.
compound,measurement,value
"O=c1[nH]cc(F)c(=O)[nH]1 [IV 5-FU, 5-fluoro-1H-pyrimidine-2,4-dione]",toxic effect: absolute numbers of white blood cells,reduction in the absolute numbers of white blood cells
same,toxic effect: number of monocytes and other leukocytes (bone marrow suppression),reduction in the number of monocytes and other leukocytes
